These results are taken from patent US7160923B1, “Polyamine analogues as therapeutic and diagnostic agents” (MediQuest Therapeutics, Inc., priority 1997, dated 2007).

Data set [1] concerns polyamine transporter (PATr). The data set can be described thus: Polyamine transport (PAT) inhibition assay in MDA-MB-231 cells. It is filed as cell-based, human. The protocol: (§1) In a conventional radiometric assay, the cells are incubated under growth conditions with [5,8-^14C]spermine in serum-free medium for varying intervals. Cells are plated at a known density in 24 well plates in standard tissue culture medium and allowed to adhere and grow for 15–96 hours. Due to the low signal of the radiolabel in this assay, 96 or […] well microplates cannot be used in this assay, creating a major bottleneck for throughput. Cell numbers are determined, and the plate is placed in a temperature controlled system at 37° C. Aminoguanidine is added to the medium to a final concentration of 1 mM. […] The assay is initiated by the mixing of the inhibitor and radioligand. The cells are incubated for an interval of about 1–60 minutes depending on cell type. The assay is terminated by removing the medium and cooling the plates to 4° C. The cells are then washed with cold medium three times, dissolved in 0.1% sodium dodecylsulfate, and the radioactivity in solution is determined by scintillation counting.
Therefore, the growth assay and a kinetic transport assay have been used to validate transport inhibition. […]

For another data set, the system named is cultured cells. The experiment in a line: Fluorescent microscopic analysis of monodansylspermine uptake. It is filed as cell-based. As for the experimental part:
Cells were plated in a sterile chambered slide and grown for 15–48 hours to assure adherence of cells to the slide. The medium was removed and replaced with fresh medium containing 1 μM MDS for a 10 minute incubation period at 37° C. The medium was then removed and the cells washed 3 times with phosphate buffered saline. Glycerol (50% v/v) in a volume of […] was added to the chamber, and the slide was removed and covered with a cover slip.
Using a fluorescence microscope with filters set for excitation at 340 nm and emission at 530 nm, the slide was observed under normal light and with fluorescence. Uptake of the dansylated spermine was observed microscopically and recorded on photograph.

The subject of data set [2] is polyamine transporter (PATr). The experiment in a line: Radiometric polyamine transport (PAT) assay in A172 cells. It is filed as cell-based. The protocol:
as §1, with “In a conventional radiometric assay, the cells are incubated under growth conditions with [5,8-^14C]spermine in serum-free medium for varying intervals.” left out

Data set [3] deals with MDA-MB-231 human breast carcinoma cells. The experiment in a line: Growth assay of MDA-MB-231 cells with and without ODC inhibitor (DFMO), 1 μM spermidine. It is filed as cell-based. As to conditions: for R: ratio of the IC50 in the absence of DFMO over the IC50 in the presence of DFMO, MDA growth assay. The source says: The ratio, R is the IC50 for […] relative to the IC50 for the polyamine analogue combined with an ODC inhibitor. This value of R, indicates the relative level of “synergism” between the polyamine analogue and ODC inhibitor.

The test system of data set [4] is polyamine transporter (PATr). The data set can be described thus: Polyamine transport (PAT) inhibition assay in MDA-MB-231 cells. It is filed as cell-based, human. This is another data set of the same source.
The subject of data set [5] is T-cell acute lymphoblastic leukemias (ALL), glioblastomas, prostate, and colon cell lines. The data set can be described thus: In vitro test in combination with ODC inhibitors against several human cancer cell lines. It counts as cell-based. The protocol:
DACS was tested in vitro in combination with ODC inhibitors against several human cancer cell lines. These include T-cell acute lymphoblastic leukemias (ALL), glioblastomas, prostate, and colon cell lines.

Data set [6] has as its target spermidine/spermine acetyltransferase (SSAT) (Homo sapiens, UniProt P21673). The data set can be described thus: Spermidine/spermine acetyltransferase (SSAT) enzyme assay. It counts as biochemical. As to conditions: varying concentrations; 1 mM spermidine, 1 mM 14C-Acetyl CoA, pH 7.8. As for the experimental part: A study was conducted to determine whether the compositions of the present invention, designed as PAT inhibitors, had other activities on the PA system. Specifically, the ability of DACS to inhibit an enzyme involved in PA recycling was evaluated. The method used was as described in Casero, R. A. et al., Biochem. J270:615–620 (1990) hereby incorporated by reference in its entirety. This assay measures the incorporation of ^14C-labeled acetyl CoA into spermidine to form acetylspermidine. Varying concentrations of DACS were added to a reaction mixture containing HEPES buffer, pH 7.8, 1 mM spermidine, and 1 mM ^14C-Acetyl CoA. The product is isolated by binding to phosphocellulose filter paper and the extent of reaction is determined by scintillation counting.

Data set [7] relates to murine L1210 leukemia cells. Particulars: cited from earlier work.
A further data set has as its system neoplastic vessels. As to conditions: one month of treatment, humans with cervical interepithelial neoplasia; cited from earlier work.
The test system of the next data set is cancer cells. Particulars: cited from earlier work.
[8] abbreviates: parallel library products, purity estimated greater than 80%, read-out: Ki μM, Inhibition of the Polyamine Transporter in MDA-MB-231 Cell Line.
[9] abbreviates: MDA-MB-231 cell PATr, read-out: Ki for the PATr.

Chain of spermidine/spermine acetyltransferase (SSAT) (P21673 whole entry, species assumed): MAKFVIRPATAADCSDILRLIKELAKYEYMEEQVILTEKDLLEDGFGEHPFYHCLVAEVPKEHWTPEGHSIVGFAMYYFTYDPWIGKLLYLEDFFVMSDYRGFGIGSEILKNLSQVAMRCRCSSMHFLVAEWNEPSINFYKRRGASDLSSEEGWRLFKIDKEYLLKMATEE

As usually defined, the Ki is a measure of affinity in units of concentration, obtained from inhibition or displacement. In the case of `NCCCNCCCCNCCCNS(=O)(=O)c1cccc2ccccc12`, the Ki in data set [1] (setting [8]) is 0.19 µM.
As to `NCCCCNS(=O)(=O)c1cccc2ccccc12`, the Ki in [1] (setting [8]) is over 30 µM.
For `NCCCNCCCCNCCCNS(=O)(=O)c1ccc2ccccc2c1`, in data set [1] (setting [8]), the Ki was 0.15 µM.
For `NCCCCNS(=O)(=O)c1ccc2ccccc2c1`, the Ki in [1] (setting [8]) was 5 µM.
As for `CC1(C)C2CCC1(CS(=O)(=O)NCCCNCCCCNCCCN)C(=O)C2` (stereo not shown), in data set [1] (setting [8]), the Ki is over 10 µM.
Still for that read-out and setting: next, `CC1(C)C2CCC1(CS(=O)(=O)NCCCCN)C(=O)C2` (stereo not shown): over 30 µM.
On to `CN(C)c1cccc2c(S(=O)(=O)NCCCNCCCCNCCCN)cccc12` [Compound 3, N^1-dansylspermine], for which, in the data set with cultured cells, the intracellular localization result was “localize specifically to the nucleoli and the nuclear membrane”. The “uptake of the fluorescent probe into cells” value in the data set with cultured cells (1 μM, 10 minute incubation at 37° C.) is “took up the labeled material”. The “displacement of 3H-spermidine in the transport assay” value in data set [2] (A172 cells) was “competitively displace”. In data set [1] (setting [9]), the Ki was found to be 0.08 µM.
As usually defined, the IC50 is the concentration needed to halve the response being measured. For the compound `CN(C)c1cccc2c(S(=O)(=O)NCCCCCC(=O)NCCCNCCCCNCCCN)cccc12` [Compound 4, N^1-[(N^6-dansyl)-6-aminocaproyl]spermine], the cell growth reduced in data set [3] (DACS plus ODC inhibitor in the presence of polyamines, by day 3) turned out to be 69%. Moreover, the IC50 in data set [3] (Homo sapiens, MDA-MB-231, with ODC inhibitor, 1.0 μM supplemented polyamines, read-out: IC50 for growth in combination with an ODC inhibitor) worked out at 0.6 µM. The “concentration at which the compound alone becomes growth inhibitory” value in data set [3] (alone, without ODC inhibitor) came to 300 µM. Moreover, the “prevention of rescue from ODC inhibition by natural polyamines” value in data set [3] (putrescine, spermidine, N1-acetylspermine and N1-acetylspermidine) is “prevents”. Besides, the R in data set [3] was 400. Further, the Ki amounted to 0.0054 µM in data set [4] (putrescine uptake, read-out: Ki, putrescine uptake) and 0.008 µM in data set [4] (spermidine uptake, read-out: Ki, spermidine uptake). The “effectiveness against tumor cell lines in vitro” value in data set [5] was “effective against all these tumor cell lines in vitro”. The “inhibition of SSAT enzymatic activity” value in data set [6] was “inhibited spermidine/spermine acetyltransferase (SSAT) in a dose-related manner”.
In the case of `NCCCNCCCCNCCCNC(=O)CCCCCNS(=O)(=O)c1ccc(CNC(=O)c2ccc(Cl)cc2)s1` [Compound 5, N^1-[(N^6–5-(4-chlorobenzamidomethyl)-thiophene-2-sulfonyl)-6-aminocaproyl]spermine], in data set [3], the R is 210.
Regarding `NCCCNCCCCNCCCNC(=O)CCCCCNS(=O)(=O)c1ccc2oc3ccccc3c2c1` [Compound 6], the R in [3] was 220.
Consider `NCCCNCCCCNCCCNS(=O)(=O)c1ccc2ccc3cccc4ccc1c2c34` [Compound 15, N^1-(1-pyrenylsulfonyl)spermine], for which the Ki in data set [1] (setting [9]) was found to be 0.091 µM.
As for `CN(C)CCCN1c2ccccc2CCc2ccccc21` [Compound 165, imipramine, reference compound], the “inhibition of the PAT assay” value in data set [2] (A172 cell line) and in data set [1] (MDA cell line) was “inhibited the PAT assay” throughout. Moreover, the inhibition constant Ki in data set [2] (A172 cells, read-out: Ki, non-competitive inhibitor of PAT) was determined as 0.041 µM; in [1] (MDA cells, read-out: Ki, non-competitive inhibitor of PAT), 0.5 µM. Moreover, the “inhibition of polyamine transport” value in data set [1] (cell line not stated at the place (Example XXII: A172 and MDA)) is recorded as “inhibited polyamine transport”.
In the case of `NCCC[C@](N)(C(=O)O)C(F)F` [DFMO, α-difluoromethylornithine], the survival in data set [7] (DFMO mice transplanted with PAT-deficient L1210 cells) is over 60 days. For the same compound, the time to death in data set [7] (mice with wild-type L1210 cells (intact PAT), treated with DFMO) is listed as 12 days. The “reduction in neoplastic vessel count” value in the data set with neoplastic vessels is on record as 50%.
Turning to `NCCCCN(CCCN)CCCNC(=O)CCCc1ccc(N(CCCl)CCCl)cc1` [chlorambucil-spermidine conjugate], in the data set on cancer cells, the “fold increase in cytotoxicity compared to chlorambucil alone” value was at most 225 fold.
